We go through twelve molecules from patent US20240246960A1 (adMare Therapeutics Society, priority 2021, published 2024).

Broadly, the IC50 is the concentration at which inhibition is half-maximal.

For assay [1], the target named is T1, DNA-PK phosphorylation at Serine 2056 (Homo sapiens, UniProt P78527).
T1 construct: host or cells: FaDu
Kind of assay: Cellular Assay for Inhibition of DNA-PK Phosphorylation at Serine 2056 (FaDu cells, neocarzinostatin, sandwich ELISA). The class given is cell-based. The note with it: Table 1. The essentials:
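Readout was pSer2056 and total DNA-PK, measured by sandwich ELISA on protein-normalized lysates. Prior to lysis, compound was applied to FaDu cells for 1 h (0.3% DMSO), followed by 2 h of 1 μg/mL neocarzinostatin. IC50 values were fitted from log concentration versus % inhibition normalized to DMSO and NCS controls.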
A general note: ELISA stands for enzyme-linked immunosorbent assay.

In another assay the target is T2, DNA-PK (Homo sapiens, UniProt P78527).
T2 construct: purchased Invitrogen PR9107A
Kind of assay: DNA-PK Assay for Biochemical Enzymatic Inhibition (ADP Glo Kinase assay). The note with it: Table 1. Put shortly: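 Human DNA-PK (25 ng) preincubated 15 min with compounds (ten three-fold dilutions) in HEPES pH 7.5, MgCl2, KCl, calf thymus DNA buffer, then substrate 434.4 μM and ATP 64.4 μM (final) for 60 min at room temperature. ADP-Glo luminescence; percent inhibition fitted by four-parameter regression for IC50.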
On the technique in general: ADP-Glo turns the ADP formed in a reaction into a luminescent signal.

In the case of `Fc1cn([C@H]2CC[C@@H](Oc3nc(N4CCOCC4)cc4ncccc34)CC2)cn1` [Compound 17a, 4-(5-(((1s,4s)-4-(4-fluoro-1H-imidazol-1-yl)cyclohexyl)oxy)-1,6-naphthyridin-7-yl)morpholine], the figures for the IC50 (in assay [1]; on DNA-PK) were less than 100 nM and 0.5 to 1 nM, respectively.
For `Cc1nc(C(F)(F)F)cn1[C@H]1CC[C@@H](Oc2nc(N3CCOCC3)cc3ncccc23)CC1` [Compound 17i, 4-(5-(((1s,4s)-4-(2-methyl-4-(trifluoromethyl)-1H-imidazol-1-yl)cyclohexyl)oxy)-1,6-naphthyridin-7-yl)morpholine] the same measures were 100 to 1000 nM and 0.5 to 1 nM.
Regarding `FC(F)(F)c1cncn1[C@H]1CC[C@@H](Oc2nc(N3CCOCC3)cc3ncccc23)CC1` [Compound 17j, 4-(5-(((1s,4s)-4-(5-(trifluoromethyl)-1H-imidazol-1-yl)cyclohexyl)oxy)-1,6-naphthyridin-7-yl)morpholine], the IC50 is 100 to 1000 nM in assay [1] and less than 0.5 nM at DNA-PK.
Turning to `Oc1cnc2cc(N3CCOCC3)nc(O[C@H]3CC[C@@H](Nc4ncccn4)CC3)c2c1` [Compound 19a, 7-Morpholino-5-(((1s,4s)-4-(pyrimidin-2-ylamino)cyclohexyl)oxy)-1,6-naphthyridin-3-ol], the values for the half-maximal inhibitory concentration (IC50) (in assay [1]; on DNA-PK) were less than 100 nM and 1 to 10 nM, respectively.
As for `CCOCCOc1cnc(N[C@H]2CC[C@@H](Oc3nc(N4CCOCC4)cc4ncc(O)cc34)CC2)nc1` [Compound 19b, 5-(((1s,4s)-4-((5-(2-Ethoxyethoxy)pyrimidin-2-yl)amino)cyclohexyl)oxy)-7-morpholino-1,6-naphthyridin-3-ol], the results for the IC50 (in assay [1]; on DNA-PK) were 100 to 1000 nM and 1 to 10 nM, respectively.
For `COc1cnc(N[C@H]2CC[C@@H](Oc3nc(N4CCOCC4)cc4ncc(O)cc34)CC2)nc1` [Compound 19c, 5-(((1s,4s)-4-((5-Methoxypyrimidin-2-yl)amino)cyclohexyl)oxy)-7-morpholino-1,6-naphthyridin-3-ol], the IC50 was less than 100 nM in assay [1] and less than 0.5 nM on DNA-PK.
Turning to `c1cnc(N[C@H]2CC[C@@H](Oc3nc(N4CCOCC4)cc4ncccc34)CC2)nc1` [Compound 20a, N-((1s,4s)-4-((7-Morpholino-1,6-naphthyridin-5-yl)oxy)cyclohexyl)pyrimidin-2-amine], the IC50 in assay [1] is 100 to 1000 nM; on DNA-PK, 0.5 to 1 nM.
Consider `FC(F)c1ccc2c(O[C@H]3CC[C@@H](Nc4ncccn4)CC3)nc(N3CCOCC3)cc2n1` [Compound 21, N-((1s,4s)-4-((2-(Difluoromethyl)-7-morpholino-1,6-naphthyridin-5-yl)oxy)cyclohexyl)pyrimidin-2-amine], for which the IC50 in assay [1] was in the range of 100 to 1000 nM; at DNA-PK it was 0.5 to 1 nM.
In the same order, the values of `FC(F)c1ccnc2cc(N3CCOCC3)nc(O[C@H]3CC[C@@H](Nc4ncccn4)CC3)c12` [Compound 22, N-((1s,4s)-4-((4-(Difluoromethyl)-7-morpholino-1,6-naphthyridin-5-yl)oxy)cyclohexyl)pyrimidin-2-amine] are less than 100 nM and less than 0.5 nM.
In the same order, the values of `c1cnc2cc(N3CCOCC3)nc(O[C@H]3CC[C@@H](Nc4cncnc4)CC3)c2c1` [Compound 28, N-((1s,4s)-4-((7-morpholino-1,6-naphthyridin-5-yl)oxy)cyclohexyl)pyrimidin-5-amine] are less than 100 nM and 0.5 to 1 nM.
Turning to `Cn1cnc(N[C@H]2CC[C@@H](Oc3nc(N4CCOCC4)cc4ncccc34)CC2)n1` [Compound 31, 1-methyl-N-((1s,4s)-4-((7-morpholino-1,6-naphthyridin-5-yl)oxy)cyclohexyl)-1H-1,2,4-triazol-3-amine], the IC50 in assay [1] was 100 to 1000 nM; on DNA-PK it was less than 0.5 nM.
In the same order, the values of `Cc1cnc(N[C@H]2CC[C@@H](Oc3nc(N4CCOCC4)cc4ncccc34)CC2)nc1` [Compound 32, 5-Methyl-N-((1s,4s)-4-((7-morpholino-1,6-naphthyridin-5-yl)oxy)cyclohexyl)pyrimidin-2-amine] are 100 to 1000 nM and less than 0.5 nM.
